In brackets after ≈: the same amount, converted by molar mass.
What was measured:
PC-3 [1] = experiment: Cytotoxicity against human PC3 cells; format: functional, cell-based
HCT-116 [2] = experiment: Cytotoxicity against human HCT116 cells; format: functional, cell-based
MCF7 [3] = experiment: Cytotoxicity against human MCF7 cells; format: functional, cell-based
Caco-2 = experiment: Cytotoxicity against human Caco2 cells; format: functional, cell-based
HeLa [4] = experiment: Cytotoxicity against human HeLa cells; format: functional, cell-based
SK-BR-3 = experiment: Cytotoxicity against human SKBR3 cells; format: functional, cell-based
SiHa = experiment: Cytotoxicity against human SiHa cells; format: functional
PANC-1 = experiment: Cytotoxicity against human PANC1 cells; format: functional
MDA-MB-231 [5] = experiment: Cytotoxicity against human MDA-MB-231 cells; format: functional
MDA-MB-231 [6] = experiment: Growth inhibition of human MDA-MB-231 cells by microtiter plate assay; format: functional
DU-145 = experiment: Growth inhibition of human DU145 cells by microtiter plate assay; format: functional
MCF7 [7] = experiment: Growth inhibition of human MCF7 cells by microtiter plate assay; format: functional
HT-29 = experiment: cells; settings: Homo sapiens, HT-29, 48 h
Description: Antiproliferative activity against human HT-29 cells after 48 hrs by MTT assay

PC-3 [8] = experiment: cells; settings: Homo sapiens, PC-3, 48 h
HCT-116 [9] = experiment: Cytotoxicity against human HCT116 cells after 96 hrs by MTT assay; format: functional, cell-based; settings: HCT-116, 96 h
HepG2 [10] = experiment: Cytotoxicity against human HepG2 cells after 96 hrs by MTT assay; format: functional, cell-based; settings: HepG2, 96 h
MCF7 [11] = experiment: Growth inhibition of human MCF7 cells; format: functional
HeLa [12] = experiment: Growth inhibition of human HeLa cells; format: functional
HepG2 [13] = experiment: Growth inhibition of human HepG2 cells; format: functional

Compound `O=C(/C=C/c1ccccc1Oc1nnnn1-c1ccccc1)c1ccccc1` has an IC50 (PC-3 [1]) of 1.6 µg/mL (≈ 4.34 µM) and an IC50 (HCT-116 [2]) of 0.6 µg/mL (≈ 1.63 µM).

Work on `COc1ccccc1C1C(c2nnn[nH]2)=C(N)Oc2ccc3ccccc3c21` (stereo not given) yielded an IC50 (MCF7 [3]) of 15 to 87 µM, an IC50 (Caco-2) of 15 to 87 µM and an IC50 (HeLa [4]) of 15 to 87 µM. The IC50 (SK-BR-3) was 15 to 87 µM.

For `CCn1cc(C(=O)O)c(=O)c2cnc(N3CCN(C(=O)CCSc4nnnn4-c4ccc(Br)cc4)CC3)nc21`, the GI50 (SiHa) was 0.08 µM, the GI50 (PANC-1) was 0.07 µM and the GI50 (MDA-MB-231 [5]) was 0.22 µM.

With `CCc1cc2c(cc1O)CC[C@@H]1[C@@H]2CC[C@]2(C)[C@@H](Cc3nnnn3C)CC[C@@H]12` the GI50 (MDA-MB-231 [6]) was 0.34 to 100 µM, the GI50 (DU-145) was 0.34 to 100 µM and the GI50 (MCF7 [7]) was 0.34 to 100 µM.

Compound `COc1ccc(C2C(c3nnn[nH]3)=C(N)Oc3ccc4ccccc4c32)cc1` (stereo not given) has an IC50 (MCF7 [3]) of 15 to 87 µM, an IC50 (Caco-2) of 15 to 87 µM and an IC50 (HeLa [4]) of 15 to 87 µM. It also gave an IC50 (SK-BR-3) of 15 to 87 µM.

`O=C(O)Cn1nnc(-c2cn(-c3ccccc3)nc2-c2ccccc2)n1` gave an IC50 (HT-29) of 86.3 µM and an IC50 (PC-3 [8]) of 70.2 µM.

For `COc1cc(-n2nnnc2SCCC(=O)N2CCN(c3cc4c(cc3F)c(=O)c(C(=O)O)cn4C3CC3)CC2)cc(OC)c1OC`, the GI50 (SiHa) was 0.066 to 1.3 µM, the GI50 (PANC-1) was 0.066 to 1.3 µM and the GI50 (MDA-MB-231 [5]) was 0.066 to 1.3 µM.

`COc1cc(/C=C/C(=O)c2ccccc2OC)ccc1Oc1nnnn1-c1ccccc1` showed an IC50 (PC-3 [1]) of 2.5 to 7 µg/mL (≈ 5.84 to 16.3 µM) and an IC50 (HCT-116 [2]) of 2.5 to 7 µg/mL (≈ 5.84 to 16.3 µM).

In the case of `COc1cc(/C=C/C(=O)c2ccc(Br)cc2)ccc1Oc1nnnn1-c1ccccc1`, the IC50 (PC-3 [1]) is reported as 2.5 to 7 µg/mL (≈ 5.24 to 14.7 µM) and the IC50 (HCT-116 [2]) is reported as 2.5 to 7 µg/mL (≈ 5.24 to 14.7 µM).

`O=C(O)c1cn(C2CC2)c2cc(N3CCN(C(=O)CCSc4nnnn4-c4ccc(F)c(F)c4F)CC3)c(F)cc2c1=O` was tested, and the GI50 (SiHa) was 0.066 to 1.3 µM, the GI50 (PANC-1) was 0.066 to 1.3 µM and the GI50 (MDA-MB-231 [5]) was 0.066 to 1.3 µM.

Work on `CC[C@H](CC[C@@H](C)[C@H]1CC[C@H]2[C@H]3[C@H](CC[C@]12C)[C@@]1(C)CCCCC1=Cc1nnnn13)C(C)C` yielded an IC50 (HCT-116 [9]) of 4.58 µM and an IC50 (HepG2 [10]) of 4.82 µM.

In the case of `CN(C)C(=O)NC(c1ccc(Cl)cc1)n1cnnn1` (stereo not given), the GI50 (MCF7 [11]) is reported as 8.2 to 41 µM, the GI50 (HeLa [12]) is reported as 8.2 to 41 µM and the GI50 (HepG2 [13]) is reported as 8.2 to 41 µM.

For `Cc1ccc(-c2nn(-c3ccccc3)cc2-c2nnn(CC(=O)O)n2)cc1`, the IC50 (HT-29) was 7.23 to 48.3 µM and the IC50 (PC-3 [8]) was 7.23 to 48.3 µM.

Compound `COc1ccc(C2C(c3nnn[nH]3)=C(N)Oc3ccc4ccccc4c32)c(OC)c1` (stereo not given) has an IC50 (MCF7 [3]) of 15 to 26 µM, an IC50 (Caco-2) of 15 to 26 µM and an IC50 (HeLa [4]) of 15 to 26 µM. The IC50 (SK-BR-3) was 15 to 26 µM.

`COc1cccc(C2C(c3nnn[nH]3)=C(N)Oc3ccc4ccccc4c32)c1OC` (stereo not given) gave an IC50 (MCF7 [3]) of 15 to 87 µM, an IC50 (Caco-2) of 15 to 87 µM and an IC50 (HeLa [4]) of 15 to 87 µM. It also gave an IC50 (SK-BR-3) of 15 to 87 µM.

For `NC(=S)NNC(c1ccc(Cl)cc1)n1cnnn1` (stereo not given), the GI50 (MCF7 [11]) was 5.2 to 29.8 µM, the GI50 (HeLa [12]) was 5.2 to 29.8 µM and the GI50 (HepG2 [13]) was 5.2 to 29.8 µM.

`CCn1cc(C(=O)O)c(=O)c2cnc(N3CCN(C(=O)CCSc4nnnn4-c4ccc(F)c(F)c4F)CC3)nc21` showed a GI50 (SiHa) of 0.066 to 1.3 µM, a GI50 (PANC-1) of 0.066 to 1.3 µM and a GI50 (MDA-MB-231 [5]) of 0.066 to 1.3 µM.

Compound `O=C(O)c1cn(C2CC2)c2cc(N3CCN(C(=O)CCSc4nnnn4Cc4ccccc4)CC3)c(F)cc2c1=O` has a GI50 (SiHa) of 0.085 to 1.15 µM, a GI50 (PANC-1) of 0.085 to 1.15 µM and a GI50 (MDA-MB-231 [5]) of 0.085 to 1.15 µM.

`NC(=S)NNC(c1ccccc1)n1cnnn1` (stereo not given) was tested, and the GI50 (MCF7 [11]) was 5.2 to 8.1 µM, the GI50 (HeLa [12]) was 5.2 to 8.1 µM and the GI50 (HepG2 [13]) was 5.2 to 8.1 µM.

Work on `COc1ccccc1-c1nn(-c2ccccc2)cc1-c1nnn(CC(=O)O)n1` yielded an IC50 (HT-29) of 7.23 to 48.3 µM and an IC50 (PC-3 [8]) of 7.23 to 48.3 µM.

With `O=C(O)c1cn(C2CC2)c2cc(N3CCN(C(=O)CCSc4nnnn4-c4ccc(C(F)(F)F)cc4)CC3)c(F)cc2c1=O` the GI50 (SiHa) was 0.066 to 1.3 µM, the GI50 (PANC-1) was 0.066 to 1.3 µM and the GI50 (MDA-MB-231 [5]) was 0.066 to 1.3 µM.

`COc1cc(/C=C/C(=O)c2cccs2)ccc1Oc1nnnn1-c1ccccc1` showed an IC50 (MCF7 [3]) of 2.9 µg/mL, an IC50 (PC-3 [1]) of 5 µg/mL (≈ 12.4 µM) and an IC50 (HCT-116 [2]) of 2.5 µg/mL (≈ 6.18 µM).

`COc1cc(/C=C/C(=O)c2ccco2)ccc1Oc1nnnn1-c1ccccc1` was tested, and the IC50 (PC-3 [1]) was 2.5 to 7 µg/mL (≈ 6.44 to 18 µM) and the IC50 (HCT-116 [2]) was 2.5 to 7 µg/mL (≈ 6.44 to 18 µM).

In the case of `O=C(O)c1cn(C2CC2)c2cc(N3CCN(C(=O)CCSc4nnnn4-c4ccccc4)CC3)c(F)cc2c1=O`, the GI50 (SiHa) is reported as 0.085 to 1.15 µM, the GI50 (PANC-1) is reported as 0.085 to 1.15 µM and the GI50 (MDA-MB-231 [5]) is reported as 0.085 to 1.15 µM.

For `CCn1cc(C(=O)O)c(=O)c2cnc(N3CCN(C(=O)CCSc4nnnn4-c4ccc(OC)c(OC)c4OC)CC3)nc21`, the GI50 (SiHa) was 0.066 to 1.3 µM, the GI50 (PANC-1) was 0.066 to 1.3 µM and the GI50 (MDA-MB-231 [5]) was 0.066 to 1.3 µM.

`NC1=C(c2nnn[nH]2)C(c2cccc(O)c2)c2c(ccc3ccccc23)O1` (stereo not given) gave an IC50 (MCF7 [3]) of 15 to 87 µM, an IC50 (Caco-2) of 15 to 87 µM and an IC50 (HeLa [4]) of 15 to 87 µM. The IC50 (SK-BR-3) was 15 to 87 µM.

Reference: ChEMBL document CHEMBL4364264, “Tetrazole hybrids with potential anticancer activity” (Eur J Med Chem, 2019)
